Results reported in US4626523A, “GRF analogs II” (The Salk Institute for Biological Studies, priority 1985, dated 1986).
Square brackets hold non-standard residues; d marks the D form. Ends that are not written are not given here. Peptide text beside a SMILES is read from it. NMeY = CN[C@@H](Cc1ccc(O)cc1)C(=O)O; NMeF = CN[C@@H](Cc1ccccc1)C(=O)O; Nle = CCCC[C@H](N)C(=O)O

Experiments:
[1] = system: cells of rat pituitary glands; test: in vitro GH release assay in cultured rat pituitary cells, side-by-side with hpGRF(1-40)-OH standard; format: cell-based; conditions: for Comparison % (GH release relative to hpGRF(1-40)-OH standard): equimolar concentrations, incubation 3 to 4 hours, immunoreactive GH in culture medium by radioimmunoassay, hpGRF(1-40)-OH = 100%
Experimental: To determine the effectiveness of the various synthetic peptides to promote the release of growth hormone, in vitro assays are carried out using synthetic hpGRF(1-40)--OH as a standard in side-by-side comparison with equimolar concentrations of the various other analogs and fragments synthesized. Cultures are used which include cells of rat pituitary glands removed some three to five days previously. Cultures which are considered optimal for the secretion of growth hormone are used for the comparative testing, in the general manner described in Vale et al. Endocrinology , 91, 562-572 (1972) and as more particularly described in Vale et al. Endocrinology, (1983), in press. Incubation with the substance to be tested is carried out for 3 to 4 hours, and aliquots of the culture medium are removed and processed to measure their contents in immunoreactive GH(ir GH) by a well-characterized radioimmunoassay.

[2] = system: secretion of pituitary GH; test: in vivo GH secretion in freely running normal male rats pretreated with FLA-63; set-up: species or system rat; conditions: injection through indwelling catheter, blood samples prior to and 5 and 20 minutes after injection
Experimental: In addition to the in vitro tests for secretion of growth hormone, in vivo experiments inject the synthetic peptides through an indwelling catheter into freely running normal male rats after pretreating them with FLA-63, a dopamine hydroxylase inhibitor that suppresses spontaneous GH secretion without affecting the response to exogenous GRF. Blood samples are taken through the same catheter immediately prior to and 5 and 20 minutes after injections. […] Dosages between about 100 nanograms and about 50 micrograms per Kg. of body weight are considered to be effective in causing secretion.

Compound | Comparison % (GH release relative to hpGRF(1-40)-OH standard) [1] | maximum effective concentration ([1]; in vitro, rat pituitary cell cultures) | duration of GH-releasing action compared with hpGRF(1-32)-NH2 [2] | stimulation of secretion of pituitary GH (GH levels in blood) ([2]; radioimmunoassay)
CC[C@H](C)[C@H](NC(=O)[C@H](C)NC(=O)[C@H](CC(=O)O)NC(=O)[C@H](C)NC(=O)[C@H](Cc1ccc(O)cc1)NC)C(=O)N[C@@H](Cc1ccccc1)C(=O)N[C@H](C(=O)N[C@@H](CC(N)=O)C(=O)N[C@@H](CO)C(=O)N[C@@H](Cc1ccc(O)cc1)C(=O)N[C@@H](CCCNC(=N)N)C(=O)N[C@@H](CCCCN)C(=O)N[C@H](C(=O)N[C@@H](CC(C)C)C(=O)NCC(=O)N[C@@H](CCC(N)=O)C(=O)N[C@@H](CC(C)C)C(=O)N[C@@H](CO)C(=O)N[C@@H](C)C(=O)N[C@@H](CCCNC(=N)N)C(=O)N[C@@H](CCCCN)C(=O)N[C@@H](CC(C)C)C(=O)N[C@@H](CC(C)C)C(=O)N[C@@H](CCC(N)=O)C(=O)N[C@@H](CC(=O)O)C(=O)N[C@H](C(=O)N[C@@H](CCSC)C(=O)N[C@@H](CO)C(=O)N[C@@H](CCCNC(=N)N)C(=O)N[C@@H](CCC(N)=O)C(=O)N[C@@H](CCC(N)=O)C(=O)NCC(N)=O)[C@@H](C)CC)C(C)C)[C@@H](C)O [[N^a MeTyr^1]hpGRF(1-32)-NH2, H-N^a MeTyr-Ala-Asp-Ala-Ile-Phe-Thr-Asn-Ser-Tyr-Arg-Lys-Val-Leu-Gly-Gln-Leu-Ser- Ala-Arg-Lys-Leu-Leu-Gln-Asp-Ile-Met-Ser-Arg-Gln-Gln-Gly-NH2] | 184% | – | – | –
H-C^a MePhe(4Cl)-Ala-Asp-Ala-Ile-Phe-Thr-Asn-Ser-Tyr-Arg-Lys-Val-Leu-Gly-Gln-Leu-Ser-Ala-Arg-Lys-Leu-Leu-Gln-Asp-Ile-Met-Ser-Arg-Gln-Gln-Gly-NH2 [[C^a Me/4Cl-Phe^1]-hpGRF(1-32)-NH2] | 5% | – | – | –
hpGRF(1-40)-OH (YADAIFTNSYRKVLGQLSARKLLQDIMSRQQGESNQERGA-OH; UniProt P01286 32-71, looked up, fragment) [synthetic human pancreas GH releasing factor fragment used as standard in the in vitro assay, reference compound] | 100% | – | – | –
CC[C@H](C)[C@H](NC(=O)[C@H](C)NC(=O)[C@H](CC(=O)O)NC(=O)[C@H](C)NC(=O)[C@H](Cc1ccccc1)NC)C(=O)N[C@@H](Cc1ccccc1)C(=O)N[C@H](C(=O)N[C@@H](CC(N)=O)C(=O)N[C@@H](CO)C(=O)N[C@@H](Cc1ccc(O)cc1)C(=O)N[C@@H](CCCNC(=N)N)C(=O)N[C@@H](CCCCN)C(=O)N[C@H](C(=O)N[C@@H](CC(C)C)C(=O)NCC(=O)N[C@@H](CCC(N)=O)C(=O)N[C@@H](CC(C)C)C(=O)N[C@@H](CO)C(=O)N[C@@H](C)C(=O)N[C@@H](CCCNC(=N)N)C(=O)N[C@@H](CCCCN)C(=O)N[C@@H](CC(C)C)C(=O)N[C@@H](CC(C)C)C(=O)N[C@@H](CCC(N)=O)C(=O)N[C@@H](CC(=O)O)C(=O)N[C@H](C(=O)N[C@@H](CCSC)C(=O)N[C@@H](CO)C(=O)N[C@@H](CCCNC(=N)N)C(=O)N[C@@H](CCC(N)=O)C(=O)N[C@@H](CCC(N)=O)C(=O)NCC(N)=O)[C@@H](C)CC)C(C)C)[C@@H](C)O [[N^a MePhe^1]-hpGRF(1-32)-NH2] (H-[NMeF]ADAIFTNSYRKVLGQLSARKLLQDIMSRQQG-NH2) | 12% | 5 to 10 nM | substantially longer duration that hpGRF(1-32)-NH2 | powerful stimulators of the secretion of pituitary GH
CCCC[C@H](NC(=O)[C@@H](NC(=O)[C@H](CCC(=O)O)NC(=O)[C@H](Cc1c[nH]cn1)NC(=O)[C@H](CC(C)C)NC(=O)[C@H](CC(C)C)NC(=O)[C@H](CCCCN)NC(=O)[C@H](CCCNC(=N)N)NC(=O)[C@H](C)NC(=O)[C@H](Cc1ccc(O)cc1)NC(=O)[C@H](CC(C)C)NC(=O)[C@H](CCC(N)=O)NC(=O)CNC(=O)[C@H](CC(C)C)NC(=O)[C@@H](NC(=O)[C@H](CCCNC(=N)N)NC(=O)[C@H](CCCNC(=N)N)NC(=O)[C@H](Cc1ccc(O)cc1)NC(=O)[C@H](CO)NC(=O)[C@H](CO)NC(=O)[C@@H](NC(=O)[C@H](Cc1ccccc1)NC(=O)[C@@H](NC(=O)[C@H](C)NC(=O)[C@H](CC(=O)O)NC(=O)[C@H](C)NC(=O)[C@H](Cc1ccc(O)cc1)NC)[C@@H](C)CC)[C@@H](C)O)[C@@H](C)CC)[C@@H](C)CC)C(=O)N[C@@H](CC(N)=O)C(=O)N[C@@H](CCCNC(=N)N)C(N)=O [[N^a MeTyr^1, Nle^27]-rhGRF(1-29)-NH2, H-N^a MeTyr-Ala-Asp-Ala-Ile-Phe-Thr-Ser-Ser-Tyr-Arg-Arg-Ile-Leu-Gly-Gln-Leu-Tyr- Ala-Arg-Lys-Leu-Leu-His-Glu-Ile-Nle-Asn-Arg-NH2] (H-[NMeY]ADAIFTSSYRRILGQLYARKLLHEI[Nle]NR-NH2) | 1130% | – | – | –
